Here are results for 1 compound from US9694018B1, “IBAT inhibitors for the treatment of liver disease” (Albireo AB, priority 2010, dated 2017).

The test system of the assay is Mdr2−/− mice. The assay can be described thus: In vivo animal model of primary sclerosing cholangitis (Mdr2-/- mice). As to conditions: daily oral gavage for 2-4 weeks, vs vehicle. The text has this: A genetic mice with targeted disruption of the Multidrug resistant Mdr2 (Abcb4) gene encoding a canalicular phospholipid flippase (Mdr2−/− mice) spontaneously develop sclerosing cholangitis with macroscopic and microscopic features of human Primary sclerosing cholangitis. Bile duct injury in these mice is linked to defective biliary phospholipid secretion resulting in an increased concentration of free non-micellar bile acids which subsequently cause bile duct epithelial cell (cholangiocyte) injury, pericholangitis, periductal fibrosis with ductular proliferation and finally sclerosing cholangitis. […] In analogy to the Mdr2−/− mouse model of sclerosing cholangitis, Multidrug resistant protein MDR3/ABCB4 (the human orthologue of rodent Mdr2/Abcb4) defects play a role in the pathogenesis of various cholangiopathies in humans. MDR3 variants play a role as a modifier gene in the pathogenesis of various cholangiopathies such as PSC, Primary Biliary cirrhosis (PBC) and adulthood idiopathic ductopenia/billary fibrosis.
Mdr2−/− mice were given daily oral doses of the compound of Example 14 by gavage for 2-4 weeks and controls were dosed the vehicle in the same way. Serum liver tests, liver histology and fibrosis were investigated. The compound of Example 14 improves liver tests, liver histology and fibrosis.

Turning to `CCCCC1(CCCC)CN(c2ccccc2)c2cc(SC)c(OCC(=O)N[C@@H](C(=O)NCC(=O)O)c3ccccc3)cc2S(=O)(=O)C1` [Example 14, 1,1-Dioxo-3,3-dibutyl-5-phenyl-7-methylthio-8-(N—{(R)-1′-phenyl-1′-[N′-(carboxymethyl)carbamoyl]methyl}carbamoylmethoxy)-2,3,4,5-tetrahydro-1,5-benzothiazepine], the Serum liver tests result is “improves”.
